Measurements from US20170190671A1, “BIS(ARYL)CATECHOL DERIVATIVES AS HERBICIDES” (E I DU PONT DE NEMOURS AND COMPANY, priority 2014, published 2017).

Key:
Type in all cases: in vivo
[1] = tested on: barnyardgrass (Echinochloa crus-galli); assay: Test C postemergence; conditions: Echinochloa crus-galli, post-emergence, Postemergence, scale 0 to 100, read-out: Plant response rating, Barnyardgrass
[2] = tested on: oilseed rape (Brassica napus); assay: Test C postemergence; conditions: Brassica napus, post-emergence, Postemergence, scale 0 to 100, read-out: Plant response rating, Oilseed Rape
[3] = tested on: johnsongrass (Sorghum halepense); assay: Test C postemergence; conditions: Sorghum halepense, post-emergence, 336 h, Postemergence, scale 0 to 100, read-out: Plant response rating, Johnsongrass
[4] = tested on: velvetleaf (Abutilon theophrasti); assay: Test C postemergence; conditions: Abutilon theophrasti, post-emergence, Postemergence, scale 0 to 100, read-out: Plant response rating, Velvetleaf
[5] = tested on: winter wheat (Triticum aestivum); assay: Test C postemergence; conditions: Triticum aestivum, post-emergence, 336 h, Postemergence, scale 0 to 100, read-out: Plant response rating, Wheat
[6] = tested on: morningglory (Ipomoea coccinea); assay: Test C postemergence; conditions: Ipomoea, post-emergence, 336 h, Postemergence, scale 0 to 100, read-out: Plant response rating, Morningglory
[7] = tested on: wild oat (Avena fatua); assay: Test C postemergence; conditions: Avena fatua, post-emergence, Postemergence, scale 0 to 100, read-out: Plant response rating, Oat, Wild
[8] = tested on: chickweed (common chickweed, Stellaria media); assay: Test C postemergence; conditions: Stellaria media, post-emergence, Postemergence, scale 0 to 100, read-out: Plant response rating, Chickweed
[9] = tested on: yellow nutsedge (Cyperus esculentus); assay: Test C postemergence; conditions: Cyperus, post-emergence, 336 h, Postemergence, scale 0 to 100, read-out: Plant response rating, Nutsedge, Yellow
[10] = tested on: corn (Zea mays); assay: Test C postemergence; conditions: Zea mays, post-emergence, 336 h, Postemergence, scale 0 to 100
[11] = tested on: blackgrass (Alopecurus myosuroides); assay: Test C postemergence; conditions: Alopecurus myosuroides, post-emergence, 336 h, Postemergence, scale 0 to 100, read-out: Plant response rating, Blackgrass
[12] = tested on: Italian ryegrass (Lolium multiflorum); assay: Test C postemergence; conditions: Lolium multiflorum, post-emergence, 336 h, Postemergence, scale 0 to 100, read-out: Plant response rating, Ryegrass, Italian
[13] = tested on: waterhemp (common waterhemp, Amaranthus rudis); assay: Test C postemergence; conditions: Amaranthus tuberculatus, post-emergence, Postemergence, scale 0 to 100, read-out: Plant response rating, Waterhemp
[14] = tested on: large (Lg) crabgrass (Digitaria sanguinalis); assay: Test C postemergence; conditions: Digitaria sanguinalis, post-emergence, 336 h, Postemergence, scale 0 to 100, read-out: Plant response rating, Crabgrass, Large
[15] = tested on: soybean (Glycine max); assay: Test C postemergence; conditions: Glycine max, post-emergence, Postemergence, scale 0 to 100, read-out: Plant response rating, Soybean
[16] = tested on: lambsquarters (Chenopodium album); assay: Test C postemergence; conditions: Chenopodium album, post-emergence, 336 h, Postemergence, scale 0 to 100, read-out: Plant response rating, Lambsquarters
[17] = tested on: galium (catchweed bedstraw, Galium aparine); assay: Test C postemergence; conditions: Galium, post-emergence, 336 h, Postemergence, scale 0 to 100, read-out: Plant response rating, Galium
[18] = tested on: ragweed (common ragweed, Ambrosia elatior); assay: Test C postemergence; conditions: Ambrosia artemisiifolia, post-emergence, 336 h, Postemergence, scale 0 to 100, read-out: Plant response rating, Ragweed
[19] = tested on: giant foxtail (Setaria faberii); assay: Test C postemergence; conditions: Setaria faberi, post-emergence, 336 h, Postemergence, scale 0 to 100, read-out: Plant response rating, Foxtail, Giant
[20] = tested on: barnyardgrass (Echinochloa crus-galli); assay: Test C preemergence; conditions: Echinochloa crus-galli, pre-emergence, preemergence, scale 0 to 100, read-out: Plant response rating, Barnyardgrass
Outline: (§1)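 Greenhouse test; preemergence on seeded loam-sand soil or spray on 1- to 4-leaf plants; solvent + surfactant vehicle; 13-15 day hold; visual comparison with controls; 0 (no effect)-100 (complete control).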

[21] = tested on: johnsongrass (Sorghum halepense); assay: Test C preemergence; conditions: Sorghum halepense, pre-emergence, 336 h, preemergence, scale 0 to 100, read-out: Plant response rating, Johnsongrass
Outline: as §1

[22] = tested on: galium (catchweed bedstraw, Galium aparine); assay: Test C preemergence; conditions: Galium, pre-emergence, 336 h, preemergence, scale 0 to 100, read-out: Plant response rating, Galium
Outline: as §1

Compound: Clc1cnc(Oc2cccc(Cl)c2Oc2ncc(Br)cn2)nc1 [Compound 17, 5-bromo-2-[2-chloro-6-[(5-chloro-2-pyrimidinyl)oxy]phenoxy]pyrimidine]
- pest or weed control at 31 g/ha ([1]; 31 g ai/ha): 5%
- pest or weed control at 62 g/ha ([1]; 62 g ai/ha): 5%
- pest or weed control at 125 g/ha ([1]; 125 g ai/ha): 10%
- pest or weed control at 250 g/ha ([1]; 250 g ai/ha): 10%
- plant injury at 31 g/ha ([2]; 31 g ai/ha): 50%
- plant injury at 62 g/ha ([2]; 62 g ai/ha): 50%
- plant injury at 125 g/ha ([2]; 125 g ai/ha): 80%
- plant injury at 250 g/ha ([2]; 250 g ai/ha): 40%
- pest or weed control at 31 g/ha ([3]; 31 g ai/ha): 5%
- pest or weed control at 62 g/ha ([3]; 62 g ai/ha): 5%
- pest or weed control at 125 g/ha ([3]; 125 g ai/ha): 5%
- pest or weed control at 250 g/ha ([3]; 250 g ai/ha): 10%
- pest or weed control at 31 g/ha ([4]; 31 g ai/ha): 30%
- pest or weed control at 62 g/ha ([4]; 62 g ai/ha): 35%
- pest or weed control at 125 g/ha ([4]; 125 g ai/ha): 40%
- pest or weed control at 250 g/ha ([4]; 250 g ai/ha): 70%
- plant injury at 31 g/ha ([5]; 31 g ai/ha): 0%
- plant injury at 62 g/ha ([5]; 62 g ai/ha): 0%
- plant injury at 125 g/ha ([5]; 125 g ai/ha): 0%
- plant injury at 250 g/ha ([5]; 250 g ai/ha): 0%
- pest or weed control at 31 g/ha ([6]; 31 g ai/ha): 90%
- pest or weed control at 62 g/ha ([6]; 62 g ai/ha): 90%
- pest or weed control at 125 g/ha ([6]; 125 g ai/ha): 85%
- pest or weed control at 250 g/ha ([6]; 250 g ai/ha): 70%
- pest or weed control at 31 g/ha ([7]; 31 g ai/ha): 0%
- pest or weed control at 62 g/ha ([7]; 62 g ai/ha): 0%
- pest or weed control at 125 g/ha ([7]; 125 g ai/ha): 5%
- pest or weed control at 250 g/ha ([7]; 250 g ai/ha): 15%
- pest or weed control at 31 g/ha ([8]; 31 g ai/ha): 40%
- pest or weed control at 62 g/ha ([8]; 62 g ai/ha): 70%
- pest or weed control at 125 g/ha ([8]; 125 g ai/ha): 60%
- pest or weed control at 250 g/ha ([8]; 250 g ai/ha): 85%
- pest or weed control at 31 g/ha ([9]; 31 g ai/ha): 5%
- pest or weed control at 62 g/ha ([9]; 62 g ai/ha): 5%
- pest or weed control at 125 g/ha ([9]; 125 g ai/ha): 5%
- pest or weed control at 250 g/ha ([9]; 250 g ai/ha): 20%
- Corn plant response rating (crop injury, 0 = no effect, 100 = complete kill) at 31 g/ha ([10]; 31 g ai/ha): 5%
- Corn plant response rating (crop injury, 0 = no effect, 100 = complete kill) at 62 g/ha ([10]; 62 g ai/ha): 20%
- Corn plant response rating (crop injury, 0 = no effect, 100 = complete kill) at 125 g/ha ([10]; 125 g ai/ha): 20%
- Corn plant response rating (crop injury, 0 = no effect, 100 = complete kill) at 250 g/ha ([10]; 250 g ai/ha): 15%
- pest or weed control at 31 g/ha ([11]; 31 g ai/ha): 5%
- pest or weed control at 62 g/ha ([11]; 62 g ai/ha): 5%
- pest or weed control at 125 g/ha ([11]; 125 g ai/ha): 15%
- pest or weed control at 250 g/ha ([11]; 250 g ai/ha): 15%
- pest or weed control at 31 g/ha ([12]; 31 g ai/ha): 0%
- pest or weed control at 62 g/ha ([12]; 62 g ai/ha): 0%
- pest or weed control at 125 g/ha ([12]; 125 g ai/ha): 5%
- pest or weed control at 250 g/ha ([12]; 250 g ai/ha): 15%
- pest or weed control at 31 g/ha ([13]; 31 g ai/ha): 90%
- pest or weed control at 62 g/ha ([13]; 62 g ai/ha): 95%
- pest or weed control at 125 g/ha ([13]; 125 g ai/ha): 95%
- pest or weed control at 250 g/ha ([13]; 250 g ai/ha): 98%
- pest or weed control at 31 g/ha ([14]; 31 g ai/ha): 5%
- pest or weed control at 62 g/ha ([14]; 62 g ai/ha): 5%
- pest or weed control at 125 g/ha ([14]; 125 g ai/ha): 10%
- pest or weed control at 250 g/ha ([14]; 250 g ai/ha): 10%
- plant injury at 31 g/ha ([15]; 31 g ai/ha): 55%
- plant injury at 62 g/ha ([15]; 62 g ai/ha): 80%
- plant injury at 125 g/ha ([15]; 125 g ai/ha): 90%
- plant injury at 250 g/ha ([15]; 250 g ai/ha): 90%
- pest or weed control at 31 g/ha ([16]; 31 g ai/ha): 80%
- pest or weed control at 62 g/ha ([16]; 62 g ai/ha): 70%
- pest or weed control at 125 g/ha ([16]; 125 g ai/ha): 90%
- pest or weed control at 250 g/ha ([16]; 250 g ai/ha): 95%
- pest or weed control at 31 g/ha ([17]; 31 g ai/ha): 70%
- pest or weed control at 62 g/ha ([17]; 62 g ai/ha): 80%
- pest or weed control at 125 g/ha ([17]; 125 g ai/ha): 90%
- pest or weed control at 250 g/ha ([17]; 250 g ai/ha): 95%
- pest or weed control at 31 g/ha ([18]; 31 g ai/ha): 50%
- pest or weed control at 62 g/ha ([18]; 62 g ai/ha): 45%
- pest or weed control at 125 g/ha ([18]; 125 g ai/ha): 60%
- pest or weed control at 250 g/ha ([18]; 250 g ai/ha): 55%
- pest or weed control at 31 g/ha ([19]; 31 g ai/ha): 5%
- pest or weed control at 62 g/ha ([19]; 62 g ai/ha): 15%
- pest or weed control at 125 g/ha ([19]; 125 g ai/ha): 10%
- pest or weed control at 250 g/ha ([19]; 250 g ai/ha): 40%
- pest or weed control at 31 g/ha ([20]; 31 g ai/ha): 20%
- pest or weed control at 62 g/ha ([20]; 62 g ai/ha): 85%
- pest or weed control at 125 g/ha ([20]; 125 g ai/ha): 100%
- pest or weed control at 250 g/ha ([20]; 250 g ai/ha): 100%
- pest or weed control at 31 g/ha ([21]; 31 g ai/ha): 10%
- pest or weed control at 62 g/ha ([21]; 62 g ai/ha): 50%
- pest or weed control at 125 g/ha ([21]; 125 g ai/ha): 85%
- pest or weed control at 31 g/ha ([22]; 31 g ai/ha): 90%
- pest or weed control at 62 g/ha ([22]; 62 g ai/ha): 98%
- pest or weed control at 125 g/ha ([22]; 125 g ai/ha): 100%
